From ChEMBL document CHEMBL4002584, “Synthesis and antibacterial activities of novel pleuromutilin derivatives with a substituted pyrimidine moiety” (2017)
In brackets after ≈: the same amount, converted by molar mass.

Assays:
Type in all cases: functional
[1] = system: Staphylococcus aureus; test: Antibacterial activity against […] Staphylococcus aureus ATCC 33591 after 24 to 48 hrs by agar dilution method
[2] = system: Escherichia coli; test: Antibacterial activity against Escherichia coli CMCC (B) 44102 after 24 to 48 hrs by agar dilution method
[3] = system: Staphylococcus aureus; test: Antibacterial activity against […] Staphylococcus aureus ATCC 29213 in iv dosed Balb/c mouse systemic infection model assessed as increase in mouse survival after 7 days
[4] = system: Staphylococcus aureus; test: Antibacterial activity against […] Staphylococcus aureus ATCC 29213 at 160 ug/ml after 24 to 36 hrs by oxford cup assay; settings: read-out: DIZ
[5] = system: Staphylococcus aureus; test: Antibacterial activity against […] Staphylococcus aureus ATCC 33591 at 320 ug/ml after 24 to 36 hrs by oxford cup assay; settings: read-out: DIZ
[6] = system: Staphylococcus aureus; test: Bactericidal activity against […] Staphylococcus aureus ATCC 29213 after 1 to 24 hrs by time-kill assay
[7] = system: Escherichia coli; test: Antibacterial activity against Escherichia coli CMCC (B) 44102 at 320 ug/ml after 24 to 36 hrs by oxford cup assay; settings: read-out: DIZ
[8] = system: Staphylococcus aureus; test: Bactericidal activity against Staphylococcus aureus CMCC (B) 26003 assessed as bacterial level at MIC after 1 to 24 hrs by time-kill assay
[9] = system: Staphylococcus aureus; test: Antibacterial activity against […] Staphylococcus aureus ATCC 29213 after 24 to 48 hrs by agar dilution method
[10] = system: Staphylococcus aureus; test: Antibacterial activity against […] Staphylococcus aureus ATCC 33591 at 160 ug/ml after 24 to 36 hrs by oxford cup assay; settings: read-out: DIZ
[11] = system: Bacillus subtilis; test: Antibacterial activity against Bacillus subtilis CMCC (B) 63501 at 160 ug/ml after 24 to 36 hrs by oxford cup assay; settings: read-out: DIZ
[12] = system: Staphylococcus aureus; test: Antibacterial activity against Staphylococcus aureus CMCC (B) 26003 at 320 ug/ml after 24 to 36 hrs by oxford cup assay; settings: read-out: DIZ
[13] = system: Escherichia coli; test: Antibacterial activity against Escherichia coli CMCC (B) 44102 at 160 ug/ml after 24 to 36 hrs by oxford cup assay; settings: read-out: DIZ
[14] = system: Staphylococcus aureus; test: Bactericidal activity against Staphylococcus aureus CMCC (B) 26003 after 1 to 24 hrs by time-kill assay
[15] = system: Bacillus subtilis; test: Antibacterial activity against Bacillus subtilis CMCC (B) 63501 after 24 to 48 hrs by agar dilution method
[16] = system: Staphylococcus aureus; test: Bactericidal activity against Staphylococcus aureus CMCC (B) 26003 at 6 times MIC after 4 hrs by time-kill assay relative to control
[17] = system: Staphylococcus aureus; test: Antibacterial activity against Staphylococcus aureus CMCC (B) 26003 at 160 ug/ml after 24 to 36 hrs by oxford cup assay; settings: read-out: DIZ
[18] = system: Staphylococcus aureus; test: Antibacterial activity against Staphylococcus aureus CMCC (B) 26003 after 24 to 48 hrs by agar dilution method
[19] = system: Bacillus subtilis; test: Antibacterial activity against Bacillus subtilis CMCC (B) 63501 at 320 ug/ml after 24 to 36 hrs by oxford cup assay; settings: read-out: DIZ
[20] = system: Staphylococcus aureus; test: Antibacterial activity against […] Staphylococcus aureus ATCC 29213 at 320 ug/ml after 24 to 36 hrs by oxford cup assay; settings: read-out: DIZ

SMILES | MIC [1] [mg/L] | MIC [2] [mg/L] | zone of inhibition at 160 µg/mL [4] [mm] | zone of inhibition at 320 µg/mL [5] [mm] | zone of inhibition at 320 µg/mL [7] [mm] | MIC [9] [mg/L] | zone of inhibition at 160 µg/mL [10] [mm] | zone of inhibition at 160 µg/mL [11] [mm] | zone of inhibition at 320 µg/mL [12] [mm] | zone of inhibition at 160 µg/mL [13] [mm] | MIC [15] [mg/L] | zone of inhibition at 160 µg/mL [17] [mm] | MIC [18] [mg/L] | zone of inhibition at 320 µg/mL [19] [mm] | zone of inhibition at 320 µg/mL [20] [mm] | other results
C=C[C@]1(C)C[C@@H](OC(=O)CSCCN(CC)CC)[C@]2(C)[C@H](C)CC[C@]3(CCC(=O)[C@H]32)[C@@H](C)[C@@H]1O [TIAMULIN] | 0.125 (≈ 0.253 µM) | 4 (≈ 8.1 µM) | 22.9 | 33.9 | 13.3 | 0.25 (≈ 0.506 µM) | 20.2 | 17.4 | 37.9 | 9.42 | 2 (≈ 4.05 µM) | 26.1 | 0.0625 (≈ 0.127 µM) | 21.3 | 29.4 | Activity [3]: Dose-dependent effect; ED50 ([3]; ATCC 29213, iv, 168 h): 5.94 mg/kg; Activity [6]: Dose-dependent effect; Activity [8]: 3 - 4 log10CFU/ml; Activity [14]: Dose-dependent effect; fold change (FC) [16]: >6
C=C[C@]1(C)C[C@@H](OC(=O)CSc2nc(N)cc(NC(=O)CN3CCOCC3)n2)[C@]2(C)[C@H](C)CC[C@]3(CCC(=O)[C@H]32)[C@@H](C)[C@@H]1O | 1 (≈ 1.59 µM) | 4 (≈ 6.35 µM) | 20.2 | 26.8 | 11.9 | 0.25 (≈ 0.397 µM) | 17.9 | 14.2 | 35.4 | 9.82 | 2 (≈ 3.18 µM) | 24.7 | 0.125 (≈ 0.198 µM) | 19.6 | 28 | 
C=C[C@]1(C)C[C@@H](OC(=O)CSc2nc(N)cc(NC(=O)CN(CC)CC)n2)[C@]2(C)[C@H](C)CC[C@]3(CCC(=O)[C@H]32)[C@@H](C)[C@@H]1O | 0.25 (≈ 0.406 µM) | 8 (≈ 13 µM) | 16.4 | 25.8 | 12 | 0.5 (≈ 0.812 µM) | 19.9 | 13.4 | 34.2 | 10.1 | 4 (≈ 6.5 µM) | 23.6 | 0.125 (≈ 0.203 µM) | 15.7 | 22.3 | 
C=C[C@]1(C)C[C@@H](OC(=O)CSc2nc(N)cc(NC(=O)CN3CCCC3)n2)[C@]2(C)[C@H](C)CC[C@]3(CCC(=O)[C@H]32)[C@@H](C)[C@@H]1O | 0.5 (≈ 0.815 µM) | 4 (≈ 6.52 µM) | 19.2 | 24 | 13.4 | 0.5 (≈ 0.815 µM) | 18.3 | 14.9 | 30.4 | 10.2 | 2 (≈ 3.26 µM) | 22.2 | 0.125 (≈ 0.204 µM) | 20 | 26.5 | 
C=C[C@]1(C)C[C@@H](OC(=O)CSc2nc(N)cc(NC(=O)CN3CCCCC3)n2)[C@]2(C)[C@H](C)CC[C@]3(CCC(=O)[C@H]32)[C@@H](C)[C@@H]1O | 0.5 (≈ 0.796 µM) | 8 (≈ 12.7 µM) | 18.2 | 22.8 | 10.3 | 0.25 (≈ 0.398 µM) | 17.9 | 15.2 | 30.1 | 8.89 | 4 (≈ 6.37 µM) | 23 | 0.25 (≈ 0.398 µM) | 19.6 | 24.9 | 
C=C[C@]1(C)C[C@@H](OC(=O)CSc2nc(N)cc(NC(=O)CN3CCC[C@@H](CO)C3)n2)[C@]2(C)[C@H](C)CC[C@]3(CCC(=O)[C@H]32)[C@@H](C)[C@@H]1O | 0.125 (≈ 0.19 µM) | 4 (≈ 6.08 µM) | 26.5 | 35.1 | 13.3 | 0.125 (≈ 0.19 µM) | 25.8 | 17.7 | 38.1 | 10.3 | 1 (≈ 1.52 µM) | 25.9 | 0.0625 (≈ 0.095 µM) | 22.2 | 34.4 | 
